Experiments:
rats = assay: Behaviour and tolerability observations in extended pharmacokinetics study; assay type: in vivo
Procedure: (§1) Animals (SD rats, both male and female, 7–9 weeks) were individually housed from 24 h before dosing until the end of the study. Food was withdrawn the night before initiation of study; following food withdrawal, animals were maintained on glucose water containing 5% w/v glucose and 1% saline to suppress endogenous ketone production throughout the study. Food was returned 8 h post-test article dosing. Animals were monitored for distress or notable changes in behavior during the study. The animals were euthanized by CO2 inhalation 2 h after the last sample collection time point.

[1] = Stability of LaKe in plasma, human; assay type: in vitro ADME; conditions: thawed); human plasma (frozen)
Procedure: (§2) The in vitro stability of LaKe was evaluated following incubation in simulated gastric fluid (SGF), simulated intestinal fluid (SIF), fresh and frozen plasma (rats and humans, respectively), and the presence of hepatocytes (rats and humans) and liver microsomes (rats and humans). At the chosen time points, the mixtures were analyzed by LC-MS/MS to quantify the remaining LaKe and all assays included at least one control compound with known pharmacokinetic properties. […]
(§3) centrifuged at 4000 rpm, 4℃ for 20 min. 60 μL of supernatant was mixed with 180 μL of purified water for subsequent LC/MS/MS analysis.
LC-MS/MS Condition: ACQUITY UPLC BEH C18 1.7um 2.1 * 50mm Column (Part No.186002350). Mobile phase: A: 0.1% Formic Acid in Water; B: 0.1% Formic Acid in ACN.
Stability of LaKe in simulated intestinal fluid (SIF)
Preparation of SIF-solution: 0.136 g KH2PO4 and 0.064 g pancreatin was dissolved H2O to a total volume of solution 20 mL. The pH of the test solution was adjusted to 6.80 ± 0.05.
Procedure: 2 μL of a 10mg/ml working solution of LaKe in DMSO was spiked into 96-deep-well plates corresponding to timepoints T0, T60, T120, T360 and T1440. Experiments were performed in duplicate. 198 μL of SIF solution was then transferred to the individual wells (except T0) to reach 0.1mg/ml as the final test concentration for each time point (60, 120, 360, 1440 minutes). […]

blood glucose = assay: Blood glucose in extended pharmacokinetics study; assay type: in vivo, SD rats; conditions: high-dose LaKe exposure; continuous ingestion of 5% glucose water
Procedure: as §1
Blood collection was performed by jugular vein cannulation of each animal and divided into two parts. About 10–15 μL of blood was used for the analysis of glucose by glucometer measurement. About 0.20 mL of blood was collected into prechilled commercial EDTA-K2 tubes containing 5 μL of the esterase inhibitor (100 mM PMSF in ethanol, 40 mg/mL NaF and 120 mg/mL […] in water = 5:95(v/v). All blood samples were placed on wet ice until centrifugation.

[2] = Stability of LaKe in plasma, rat; assay type: in vitro ADME
Procedure: as §2, §3
LC-MS/MS Condition: ACQUITY UPLC BEH C18 1.7um 2.1 * 50mm Column (Part No.186002350). Mobile phase: A: 0.1% Formic Acid in Water; B: 0.1% Formic Acid in ACN. […]
Samples were incubated at 37 ℃, 600 rpm for the appointed time. At the chosen time points (60, 120, 360, 1440 minutes) samples were immediately mixed with 400 μL of cold acetonitrile containing 200 ng/mL tolbutamide and labetalol (internal standards). 200 μL of suspension was removed and mixed completely with 400 μL of cold acetonitrile containing 200 ng/mL tolbutamide and labetalol again. The T0 samples were prepared by transferring 198 μL of SIF solution to corresponding well after adding 400 μL of cold acetonitrile containing 200 ng/mL tolbutamide and then mixing completely. The samples were […]
Stability of LaKe in plasma […]

[3] = Hepatocyte stability of LaKe, rat; assay type: in vitro ADME; conditions: cryopreserved hepatocytes

## CC(O)CCOC(=O)C(C)O (stereo not drawn) [LaKe, 3-hydroxybutyl 2-hydroxypropanoate]
rats; 12 g/kg, at 2 and 8 h following administration, some of the rats, normalized at 10 h
  behaviour observations: slightly reduced activity and a hunched posture
rats; 10 h following administration, any of the doses
  signs of toxicity: No signs of toxicity or deviation from normal behavior
rats; lower doses (1.3 g/kg and 4.1 g/kg), all time points
  behaviour observations: normal behavior was observed at all time points
rats; rats, oral, up to 12 g/kg
  overall tolerability: well tolerated
[1]
  half-life at 2 µM: < 30 min
Blood glucose
  blood glucose: nonsignificant trend toward lower glucose levels
[2]; fresh plasma from rats, 10 min
  detection of LaKe at the first time point: could not be detected
[2]; rat plasma (fresh)
  half-life at 2 µM: < 30 min
[3]
  half-life at 0.1 mg/mL: < 30 min

Source: PMC11403612, “Preparation and Preclinical Characterization of a Simple Ester for Dual Exogenous Supply of Lactate and Beta-hydroxybutyrate” (Journal of Agricultural and Food Chemistry, 2024)
